Several values for one entry are separate records, joined by “and”; a condition that tells them apart may be missing. Equal entries are not always repeated.
Columns and labels:
Salmonella gallinarum = assay: controlling fowl typhoid in chicks, medicated feed; format: in vivo, Salmonella gallinarum (in sex-linked pullet chicks); conditions: 10 days
Protocol: Groups of five one-day old sex-linked pullet checks are infected orally by gavage with 0.5 ml. of a 10^-^2 dilution of a five-hour Trypticase Soy Broth culture of Salmonella gallinarum, the causative agent of fowl typhoid. Each chick receives approximately 6 × 10^5 viable cells. Medication is administered continuously in the feed, beginning 3 hours before infection and continuing for 10 days, at which time the test is terminated and the number of survivors in each group recorded. Each test utilizes two control groups of chicks, the first group comprising 20 chicks which are infected and untreated, and the second group comprising 10 chicks which are uninfected and untreated. The results of the tests are set forth in the following Table III (in some instances, the results from two or more tests are combined): […]

Escherichia coli = assay: controlling colibacillosis in chicks infected with Escherichia coli, single oral dose; format: in vivo, Escherichia coli (in sex-linked pullet chicks); conditions: 12 days after treatment
Protocol: Three groups of 10 five-day old sex-linked pullet chicks are infected parenterally, in the left thoracic air sac, with 0.2 ml. of a 10^-^1 dilution of a Trypticase Soy Broth culture of Escherichia coli, the causative agent of colibacillosis in poultry. The compounds to be tested are administered by gavage as a single oral dose in an aqueous solution or suspension, and the chicks are permitted to feed ad libitum the feed composition prepared in Example 44. Twelve days after treatment, the test is terminated and the number of survivors in each group recorded.
Four groups of 40, five-day old sex-linked pullet chicks are infected in the same manner as herein set forth with Escherichia coli. […] Twelve days after treatment, the test is terminated and the number of survivors in each group recorded.

Pasteurella multocida [1] = assay: controlling a Pasteurella multocida infection in mice; format: in vivo, Pasteurella multocida (in Swiss Webster female mice); conditions: 336 h, 2 mg./mouse by gavage, two weeks post-infection, read-out: Survivors/Total (converted)
Protocol: Swiss Webster, female mice weighing 22±2 g. were infected by intrapeutoneal injection of 0.5 ml. of a 5 hour Trypticase Soy Broth culture containing 10^7 cfu. of P. multocida. Each mouse was given by gavage at the time of infection 2 mg. of the test drug suspended in 0.2% agar.

Pasteurella multocida [2] = assay: as above; format: in vivo, Pasteurella multocida (in Swiss Webster female mice); conditions: 336 h, two weeks post-infection, read-out: Survivors/Total (converted); for responders at 0.5 mg: 0.5 mg./mouse by gavage; for responders at 0.25 mg: 0.25 mg./mouse by gavage; for responders at 1 mg: 1 mg./mouse by gavage
[3] = enhancing the growth rate and improving feed efficiency, chicks; format: in vivo
Source text: Day-old chicks are divided into groups of ten birds each, five males and five females. These groups are then weighted, placed in pens and given free access to water and feed. […] All feed is weighed such that an accurate determination as to the amount of gain per unit of feed can be ascertained. […]

[4] = 0.025% in feed, 10 chicks tested
[5] = 0.006% in feed, 5 chicks tested
[6] = 0.025% in feed, 5 chicks tested
[7] = 0.006% in feed, 10 chicks tested
[8] = 100 PPM in diet, average of two groups
[9] = 100 PPM in diet, groups of 10 and 9 birds, listed as 2-(2-amino-5-thiadiazolyl)-1-(2-hydroxyethyl)5-nitroimidazole
[10] = 10 ppm in diet, 10 birds, 19 days
[11] = 10 ppm in diet, 10 birds, 19 days, listed as 1-[5-(1-Methyl-5-nitro-2-imidazolyl)-1,3,4-thiadiazol-2-yl]-4-(2-thiazolyl)piper
[12] = 10 ppm in diet, 10 birds, listed as 1-[5-(1-Methyl-5-nitro-2-imidazolyl)-1,3,4-thiadiazol-2-yl]-4-(2-thiazolyl)piper

SMILES: CC(=O)Nc1nnc(-c2ncc([N+](=O)[O-])n2C)o1 [2-(2-Acetamido-5-oxadiazolyl)-1-methyl-5-nitroimidazole]
- Survivors (Salmonella gallinarum; [4]): 8
- Survivors (Salmonella gallinarum; 0.1% in feed, 10 chicks tested): 10

SMILES: CC(=O)Nc1nnc(-c2ncc([N+](=O)[O-])n2C)s1 [2-(2-Acetamido-5-thiadiazolyl)-1-methyl-5-nitro-imidazole]
- Survivors (Escherichia coli; 10 mg/kg single oral dose, 40 chicks tested): 29
- Survivors (Escherichia coli; 20 mg/kg single oral dose, 40 chicks tested): 35
- Survivors (Escherichia coli; 40 mg/kg single oral dose, 40 chicks tested): 39
- Survivors (Salmonella gallinarum; [5]): 3
- Survivors (Salmonella gallinarum; [6]): 4
- Survivors (Salmonella gallinarum; 0.1% in feed, 5 chicks tested): 5

SMILES: Nc1nnc(-c2ncc([N+](=O)[O-])n2CCO)o1 [2-(2-Amino-5-oxadiazolyl)-1-(2-hydroxyethyl)-5-nitroimidazole]
- responders at 2 mg (Pasteurella multocida [1]): 100%
- responders at 0.5 mg (Pasteurella multocida [2]): 90%

SMILES: Nc1nnc(-c2ncc([N+](=O)[O-])n2Cc2ccccc2)o1 [2-(2-Amino-5-oxadiazolyl)-1-benzyl-5-nitroimidazole]
- Survivors (Salmonella gallinarum; [7]): 1
- Survivors (Salmonella gallinarum; [4]): 1
- Survivors (Salmonella gallinarum; 0.1% in feed, 10 chicks tested): 9

SMILES: Nc1nnc(-c2ncc([N+](=O)[O-])n2Cc2ccccc2)s1 [2-(2-Amino-5-thiadiazolyl)-1-benzyl-5-nitroimidazole]
- Survivors (Salmonella gallinarum; [4]): 4
- Survivors (Salmonella gallinarum; 0.1% in feed, 10 chicks tested): 10
- responders at 2 mg (Pasteurella multocida [1]): 0%

SMILES: Nc1nnc(-c2ncc([N+](=O)[O-])n2CCO)s1 [2-(2-Amino-5-thiodiazolyl)-1-(2-hydroxyethyl)-5-nitroimidazole]
- Survivors (Salmonella gallinarum; [4]): 8
- Survivors (Salmonella gallinarum; 0.1% in feed, 10 chicks tested): 10
- % inc. over Controls, F/G ([3]; 100 PPM in diet, 19 days): 6.5%
- % inc. over Controls, Gain ([3]; 100 PPM in diet, 19 days): 7.6%
- Average Gain 19 Days [3, 8]: 297 Grams
- Average Wt. at 19 days [3, 8]: 340 Grams
- Average lb. feed/lb. gain ([3]; 100 PPM in diet, average of two groups, 19 days): 1.525 lb. feed/lb. gain
- lb.feed/lb. gain ([3]; 100 PPM in diet, groups of 10 and 9 birds, 19 days, listed as 2-(2-amino-5-thiadiazolyl)-1-(2-hydroxyethyl)5-nitroimidazole): 1.53 lb. feed/lb. gain and 1.52 lb. feed/lb. gain
- Gain 19 Days [3, 9]: 309 Grams and 285 Grams
- Wt. at 19 days [3, 9]: 352.2 Grams and 327.8 Grams
- responders at 0.25 mg (Pasteurella multocida [2]): 76.7%
- responders at 0.5 mg (Pasteurella multocida [2]): 90%
- responders at 1 mg (Pasteurella multocida [2]): 100%

SMILES: Cn1c([N+](=O)[O-])cnc1-c1nnc(NC2CCCCC2)s1 [2-(2-Cyclohexylamino-5-thiadiazolyl)-1-5-nitroimidazole]
- Survivors (Salmonella gallinarum; 0.1% in feed, 10 chicks tested): 8

SMILES: Cn1c([N+](=O)[O-])cnc1-c1nnc(NC(=O)C(Cl)Cl)s1 [2-(2-Dichloroacetamido-5-thiadiazolyl)-1-methyl-5-nitroimidazole]
- Survivors (Salmonella gallinarum; 0.025% in feed, 15 chicks tested): 3
- Survivors (Salmonella gallinarum; 0.1% in feed, 10 chicks tested): 7

SMILES: CCNc1nnc(-c2ncc([N+](=O)[O-])n2C)s1 [2-(2-Ethylamino-5-thiadiazolyl)-1-methyl-5-nitroimidazole]
- Survivors (Salmonella gallinarum; [5]): 3
- Survivors (Salmonella gallinarum; [4]): 3
- Survivors (Salmonella gallinarum; 0.1% in feed, 10 chicks tested): 10
- responders at 2 mg (Pasteurella multocida [1]): 100%

SMILES: Cn1c([N+](=O)[O-])cnc1-c1nnc(NCO)s1 [2-(2-Hydroxymethylamino-5-thiadiazolyl)-1-methyl-5-nitroimidazole]
- Survivors (Salmonella gallinarum; [7]): 2
- Survivors (Salmonella gallinarum; [4]): 2
- Survivors (Salmonella gallinarum; 0.1% in feed, 10 chicks tested): 10
- responders at 2 mg (Pasteurella multocida [1]): 100%

SMILES: CNc1nnc(-c2ncc([N+](=O)[O-])n2C)o1 [2-(2-Methylamino-5-oxadiazolyl)-1-methyl-5-nitroimidazole]
- Survivors (Salmonella gallinarum; [7]): 8
- Survivors (Salmonella gallinarum; [4]): 10
- Survivors (Salmonella gallinarum; 0.1% in feed, 5 chicks tested): 5

SMILES: Cn1c([N+](=O)[O-])cnc1-c1nnc(NC(=O)CN2CCOCC2)s1 [2-(2-Morpholinoacetamido-5-thiadiazolyl)-1-methyl-5-nitroimidazole]
- Survivors (Salmonella gallinarum; [6]): 1
- Survivors (Salmonella gallinarum; 0.1% in feed, 10 chicks tested): 10
- responders at 2 mg (Pasteurella multocida [1]): 20%

SMILES: Cn1c([N+](=O)[O-])cnc1-c1nnc(N2CCCCC2)s1 [2-(2-Piperidino-5-thiadiazolyl)-1-methyl-5-nitroimidazole]
- Survivors (Salmonella gallinarum; 0.1% in feed, 10 chicks tested): 4
- Gain 19 Days ([3]; 10 ppm in diet, 10 birds): 292.7 Grams
- Weight at 19 days ([3]; 10 ppm in diet, 10 birds): 334.7 Grams
- % Increase Over Controls, F/G [3, 10]: 2.7%
- % Increase Over Controls, Gain [3, 10]: 1.0%
- lb.feed/lb. gain [3, 10]: 1.48 lb.feed/lb. gain
- responders at 0.25 mg (Pasteurella multocida [2]): 50%
- responders at 0.5 mg (Pasteurella multocida [2]): 40%
- responders at 1 mg (Pasteurella multocida [2]): 90%

SMILES: CCCn1c([N+](=O)[O-])cnc1-c1nnc(N)s1 [2-(2-amino-5-thiadiazolyl)-1-propyl-5-nitroimidazolo]
- Survivors (Salmonella gallinarum; 0.1% in feed, 10 chicks tested): 6

SMILES: CN(C)c1nnc(-c2ncc([N+](=O)[O-])n2CCO)o1 [2-(2-dimethylamino-5-oxadiazolyl)-1-(2-hydroxyethyl)-5-nitroimidazole]
- Survivors (Salmonella gallinarum; [4]): 2
- Survivors (Salmonella gallinarum; 0.1% in feed, 10 chicks tested): 5

SMILES: CNc1nnc(-c2ncc([N+](=O)[O-])n2CCO)o1 [2-(2-methylamino-5-oxadiazolyl)-1-(2-hydroxyethyl)-5-nitroimidazole]
- Survivors (Salmonella gallinarum; 0.1% in feed, 10 chicks tested): 6

SMILES: CCCCCCNc1nnc(-c2ncc([N+](=O)[O-])n2C)s1 [2-(2-n-Hexylamino-5-thiadiazolyl)-1-methyl-5-nitroimidazole]
- Survivors (Salmonella gallinarum; 0.1% in feed, 10 chicks tested): 6
- responders at 0.25 mg (Pasteurella multocida [2]): 20%
- responders at 0.5 mg (Pasteurella multocida [2]): 80%
- responders at 1 mg (Pasteurella multocida [2]): 90%

SMILES: Cn1c([N+](=O)[O-])cnc1-c1nnc(NC(C)(C)C)s1 [2-(2-t-Butylamino-5-thiadiazolyl)-1-methyl-5-nitroimidazole]
- Survivors (Salmonella gallinarum; 0.1% in feed, 10 chicks tested): 6

SMILES: Cn1c([N+](=O)[O-])cnc1-c1nnc(N2CCNCC2)s1 [2-[2-(1-Piperazinyl)-5-thiadiazolyl]-1-methyl-5-nitroimidazole]
- Survivors (Escherichia coli; 40 mg/kg single oral dose, 20 chicks tested): 6
- Survivors (Escherichia coli; 160 mg/kg single oral dose, 20 chicks tested): 18
- Survivors (Salmonella gallinarum; [4]): 1
- Survivors (Salmonella gallinarum; 0.1% in feed, 10 chicks tested): 8
- responders at 2 mg (Pasteurella multocida [1]): 10%

SMILES: CN1CCN(c2nnc(-c3ncc([N+](=O)[O-])n3C)s2)CC1 [2-[2-(4-Methyl-1-piperazinyl)-5-thiadiazolyl)-1-methyl-5-nitroimidazole]
- Survivors (Salmonella gallinarum; 0.1% in feed, 10 chicks tested): 4

SMILES: Cn1c([N+](=O)[O-])cnc1-c1nnc(N2CCN(CCO)CC2)s1 [2-[4-(2-Hydroxyethyl)-1-piperazinyl-5-thiadiazolyl]-1-methyl-5-nitroimidazole]
- Survivors (Salmonella gallinarum; [4]): 3
- Survivors (Salmonella gallinarum; 0.1% in feed, 10 chicks tested): 7
- responders at 2 mg (Pasteurella multocida [1]): 100%

SMILES: CN(CCO)c1nnc(-c2ncc([N+](=O)[O-])n2C)s1 [2-{2-N-(2-Hydroxyethyl)methylamino]-5-thiadiazolyl}-1-methyl-5-nitroimidazolo]
- Survivors (Salmonella gallinarum; 0.1% in feed, 10 chicks tested): 8
- responders at 2 mg (Pasteurella multocida [1]): 100%
- responders at 0.5 mg (Pasteurella multocida [2]): 10%
- responders at 1 mg (Pasteurella multocida [2]): 30%

SMILES: Cn1c([N+](=O)[O-])cnc1-c1nnc(N2CCN(c3nccs3)CC2)s1 [2-{2-[4-(2-Thiazolyl)-1-piperazinyl]-5-thiadiazolyl]-1-methyl-5-nitroimidazole]
- responders at 2 mg (Pasteurella multocida [1]): 20%
- % Increase Over Controls, F/G [3, 11]: 4.1% and 2.0%
- % Increase Over Controls, Gain [3, 11]: 5.0% and 9.0%
- lb.feed/lb. gain [3, 11]: 1.47 lb.feed/lb. gain and 1.50 lb.feed/lb. gain
- Gain 19 Days [3, 12]: 315.5 Grams and 303.2 Grams
- Weight at 19 days [3, 12]: 337.8 Grams and 346.9 Grams

SMILES: CN(C)CCCC1CCN(c2nnc(-c3ncc([N+](=O)[O-])n3C)s2)CC1 [2-{2-[4-(3-Dimethylaminopropyl)-1-piperidino]-5-thiadiazolyl}-1-methyl-5-nitroimidazole]
- responders at 2 mg (Pasteurella multocida [1]): 100%
- responders at 0.5 mg (Pasteurella multocida [2]): 90%

SMILES: CC(=O)Nc1nnc(-c2ncc([N+](=O)[O-])n2CCO)s1 [N-{5-[1-(2-Hydroxyethyl)-5-nitro-2-imidazolyl]-1,3,4-thiadiazol-2-yl-acetamide]
- Gain 19 Days ([3]; 10 ppm in diet, 10 birds): 305.5 Grams
- Weight at 19 days ([3]; 10 ppm in diet, 10 birds): 345.9 Grams
- % Increase Over Controls, F/G [3, 10]: 0.6%
- % Increase Over Controls, Gain [3, 10]: 0.7%
- lb.feed/lb. gain [3, 10]: 1.57 lb.feed/lb. gain
